{"source": "ChEMBL document CHEMBL2074283", "about": "“Interaction of pristinamycin IA with P-glycoprotein in human intestinal epithelial cells” (Eur J Pharmacol, 1995)", "key": {"P-glycoprotein (ABCB1)": {"biological_target": "P-glycoprotein (ABCB1) (Homo sapiens, UniProt P08183)", "sequence (P08183 whole entry)": "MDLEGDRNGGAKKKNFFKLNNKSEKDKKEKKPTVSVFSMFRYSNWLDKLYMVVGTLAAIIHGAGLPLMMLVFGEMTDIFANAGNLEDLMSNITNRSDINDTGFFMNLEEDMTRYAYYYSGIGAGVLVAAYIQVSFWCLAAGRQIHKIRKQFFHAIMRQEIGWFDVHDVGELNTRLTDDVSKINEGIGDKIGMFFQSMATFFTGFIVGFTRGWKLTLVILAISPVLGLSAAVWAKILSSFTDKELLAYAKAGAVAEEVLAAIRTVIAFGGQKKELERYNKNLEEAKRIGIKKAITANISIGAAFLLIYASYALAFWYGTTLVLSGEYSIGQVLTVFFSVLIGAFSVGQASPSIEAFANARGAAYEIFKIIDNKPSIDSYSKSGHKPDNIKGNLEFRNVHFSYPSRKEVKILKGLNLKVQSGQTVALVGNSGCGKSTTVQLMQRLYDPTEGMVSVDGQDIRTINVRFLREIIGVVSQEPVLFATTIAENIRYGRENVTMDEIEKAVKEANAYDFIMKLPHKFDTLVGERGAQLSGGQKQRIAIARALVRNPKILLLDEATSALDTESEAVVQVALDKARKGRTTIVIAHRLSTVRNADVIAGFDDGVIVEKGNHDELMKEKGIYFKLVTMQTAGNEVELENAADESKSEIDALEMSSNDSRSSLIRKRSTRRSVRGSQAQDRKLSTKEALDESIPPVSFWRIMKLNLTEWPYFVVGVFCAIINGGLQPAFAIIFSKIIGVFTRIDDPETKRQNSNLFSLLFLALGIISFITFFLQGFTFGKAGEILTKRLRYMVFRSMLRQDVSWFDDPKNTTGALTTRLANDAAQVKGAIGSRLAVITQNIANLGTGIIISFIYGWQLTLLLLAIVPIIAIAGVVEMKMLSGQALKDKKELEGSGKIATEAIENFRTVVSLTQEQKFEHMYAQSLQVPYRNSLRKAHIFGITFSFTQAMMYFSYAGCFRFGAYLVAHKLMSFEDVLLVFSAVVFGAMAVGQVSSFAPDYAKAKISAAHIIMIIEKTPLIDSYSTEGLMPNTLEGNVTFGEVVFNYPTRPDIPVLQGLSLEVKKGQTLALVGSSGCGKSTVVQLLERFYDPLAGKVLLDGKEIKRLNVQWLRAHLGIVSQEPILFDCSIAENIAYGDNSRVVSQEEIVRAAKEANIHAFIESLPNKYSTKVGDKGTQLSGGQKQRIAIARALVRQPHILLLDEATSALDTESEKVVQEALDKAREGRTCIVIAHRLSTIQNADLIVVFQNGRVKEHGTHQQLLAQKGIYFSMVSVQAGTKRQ", "test": "TP_TRANSPORTER: inhibition of Vinblastine transepithelial transport (basal to apical) (Vinblastine: 0.05 uM, Pristinamycin IA: 100 uM) in Caco-2 cells", "type": "functional, cell-based", "settings": "Caco-2, probe Vinblastine 0.05 uM"}, "[1]": {"biological_target": "ATP-dependent translocase ABCB1 (Homo sapiens, UniProt P08183)", "sequence (P08183 whole entry)": "as above", "test": "TP_TRANSPORTER: transepithelial transport (basal to apical) in Caco-2 cells", "type": "functional, cell-based"}}, "note": "Bridge positions count the residues as written; N and C are the ends. Square brackets hold non-standard residues; d marks the D form. Peptide text beside a SMILES is read from it. * marks the point of attachment. NMePhe(4-NMe2) = CN[C@@H](Cc1ccc(N(C)C)cc1)C(=O)O; Pip(4-oxo) = O=C1CCN[C@H](C(=O)O)C1; Picolinoyl(3-OH) = O=C(c1ncccc1O)*; Phg = N[C@H](C(=O)O)c1ccccc1; dAbu = CC[C@@H](N)C(=O)O"}
{"molecule": "CC[C@H]1NC(=O)[C@@H](NC(=O)c2ncccc2O)[C@@H](C)OC(=O)[C@H](c2ccccc2)NC(=O)[C@@H]2CC(=O)CCN2C(=O)[C@H](Cc2ccc(N(C)C)cc2)N(C)C(=O)[C@@H]2CCCN2C1=O", "note": "[PRISTINAMYCIN 1A] ({Picolinoyl(3-OH)}-T[dAbu]P[NMePhe(4-NMe2)][Pip(4-oxo)][Phg]; ester 1-C)", "values": [{"measurement": "inhibition at 100 µM", "setting": "P-glycoprotein (ABCB1)", "value": 55, "unit": "%"}, {"measurement": "Activity", "setting": "[1]", "value": "substrate [+]"}]}
